# Experiments:
# [1] = Biodegradability, OECD 301 D Closed Bottle Test
# Text: The same protocol was used to test EDTA (“DISSOLVINE AM3-40” available from AkzoNobel Corporate) and sodium acetate.
# [2] = Miscibility and pH of breaker systems in fresh water; assay type: physicochemical; settings: breaker system in fresh water, 150° F. for 16 hours
# Method: Several chelating agents and acids (breaker systems) were tested for their calcium carbonate dissolving capacity and miscibility in fresh water. Tests of the breaker systems were performed by adding a known volume of breaker system to a volume of brine needed to fill 100 ml in a jar. The jars were then sealed and swirled to mix the components. Samples containing 5%, 10%, or 20% v/v of chelating agents and acids were prepared. The jars were then placed in a static oven at 150° F. for 16 hours. Afterwards, miscibility of the components was observed and the pH of each mixture was tabulated.
# [3] = Compatibility and dissolution ability in potassium formate brine; assay type: physicochemical; settings: for % Dissolved or precipitated out / Amount of carbonate remaining: 20% v/v breaker; for Amount of carbonate remaining: 2.5 g calcium carbonate, 16 hours, * = precipitation of formate salts
# Method: In this Example, the compatibility and dissolution ability of various breaker systems with formate brine were evaluated. […] For each sample a 20% v/v breaker sample was prepared in three different concentrations of potassium formate brine (11 ppg, 12 ppg, and 13 ppg).
# To determine the compatibility of each breaker with the potassium formate brine, each sample was checked for the formation of formate salts. This precipitation was indicative of an incompatibility of the breaker system with the formate brine. Samples in which precipitation was observed are noted with an asterisk (*).
# The dissolution ability of the breaker systems was also tested in the various concentration of formate brine. […] The jars were then dried in an 90° F. oven for 16 hours. After the elapsed time, the amount of carbonate that remained was weighed and tabulated. The difference in weight represented the amount of carbonate that was dissolved by the breaker system and/or precipitated out as a result of being incompatible with the formate brine.
structure (smiles),measurement,setting,value
"O=C(O)CC[C@@H](C(=O)O)N(CC(=O)O)CC(=O)O [GLDA, L-glutamic acid N,N-diacetic acid]",Biodegradability,[1],Easy
same,biodegradability (in words),[1],readily biodegradable
same,pH,[2],>12
same,compatibility with the formate brine,"[3]; 20% v/v breaker, 11, 12 and 13 ppg potassium formate, precipitation of formate salts = incompatible",fully compatible with the formate brine
same,% Dissolved or precipitated out,[3]; 11 ppg Potassium Formate,48%
same,Amount of carbonate remaining,[3]; 11 ppg Potassium Formate,1.05 g
same,% Dissolved or precipitated out,[3]; 12 ppg Potassium Formate,33%
same,Amount of carbonate remaining,[3]; 12 ppg Potassium Formate,1.67 g
same,% Dissolved or precipitated out,[3]; 13 ppg Potassium Formate,20%
same,Amount of carbonate remaining,[3]; 13 ppg Potassium Formate,2.00 g
